# According to ChEMBL document CHEMBL4196025 (Eur J Med Chem, 2018):
# Activity calls are given as the source filed them. The rule behind the calls is not given here.
# What was measured:
# [1] = target: Acetylcholinesterase (Electrophorus electricus, UniProt O42275); test: Inhibition of electric eel AChE using acetylthiocholine iodide as substrate preincubated for 5 mins followed by DTNB addition for 5 mins and subsequent addition of substrate measured after 3 mins by Ellman's method
# [2] = target: Cholinesterase (Equus caballus, UniProt P81908)
# Description: Inhibition of equine serum BCHE using butyrylthiocholine iodide as substrate preincubated for 5 mins followed by DTNB addition for 5 mins and subsequent addition of substrate measured after 3 mins by Ellman's method
# [3] = target: T1, Acetylcholinesterase (Homo sapiens, UniProt P22303); test: Inhibition of human erythrocyte AChE using acetylthiocholine iodide as substrate preincubated for 5 mins followed by DTNB addition for 5 mins and subsequent addition of substrate measured after 3 mins by Ellman's method
# [4] = target: Cholinesterase (Homo sapiens, UniProt P06276); test: Inhibition of human serum BCHE using butyrylthiocholine iodide as substrate preincubated for 5 mins followed by DTNB addition for 5 mins and subsequent addition of substrate measured after 3 mins by Ellman's method
# [5] = target: Amyloid-beta precursor protein (Homo sapiens) (UniProt P05067); test: Inhibition of self-induced amyloid beta (1 to 42) (unknown origin) aggregation up to 100 uM measured after 24 hrs by ThT fluorescence assay
# [6] = test system: PC-12; test: Protection against CoCl2-induced damage in rat PC12 cells assessed as cell viability at 10 uM preincubated for 36 hrs followed by CoCl2 addition measured after 12 hrs by MTT assay (reference value: 51.2%); format: functional; settings: read-out: Activity
# [7] = test system: PC-12; test: Protection against CoCl2-induced damage in rat PC12 cells assessed as cell viability at 2.5 uM preincubated for 36 hrs followed by CoCl2 addition measured after 12 hrs by MTT assay (reference value: 51.2%); format: functional; settings: read-out: Activity
# [8] = test system: PC-12; test: Protection against CoCl2-induced damage in rat PC12 cells assessed as cell viability at 5 uM preincubated for 36 hrs followed by CoCl2 addition measured after 12 hrs by MTT assay (reference value: 51.2%); format: functional; settings: read-out: Activity
# [9] = target: T1, Acetylcholinesterase; test: Potency index, ratio of tacrine IC50 to compound IC50 for inhibition of human erythrocyte AChE
# [10] = target: Amyloid-beta precursor protein (Homo sapiens) (UniProt P05067); test: Inhibition of self-induced amyloid beta (1 to 42) (unknown origin) aggregation at 20 uM measured after 24 hrs by ThT fluorescence assay relative to control
# [11] = target: Amyloid-beta precursor protein (Homo sapiens) (UniProt P05067); test: Inhibition of self-induced amyloid beta (1 to 42) (unknown origin) aggregation at 100 uM measured after 24 hrs by ThT fluorescence assay relative to control
# [12] = target: Amyloid-beta precursor protein (Homo sapiens) (UniProt P05067); test: Inhibition of self-induced amyloid beta (1 to 42) (unknown origin) aggregation measured after 24 hrs by ThT fluorescence assay
# [13] = Cytotoxicity against NGF-differentiated rat PC12 cells assessed as cell viability at 10 uM after 48 hrs by MTT assay relative to control; format: cell-based, PC-12; settings: read-out: Activity
# [14] = test system: PC-12; test: Protection against CoCl2-induced damage in rat PC12 cells assessed as increase in cell viability preincubated for 36 hrs followed by CoCl2 addition measured after 12 hrs by MTT assay; format: functional, cell-based
# [15] = target: Acetylcholinesterase (Electrophorus electricus) (UniProt O42275); test: Mixed-type inhibition of electric eel AChE at 2.5 to 10 nM using varying levels of acetylthiocholine iodide as substrate by Lineweaver-Burk plot analysis
# [16] = target: T1, Acetylcholinesterase; test: Mixed-type inhibition of human erythrocyte AChE at 2.5 to 10 nM using varying levels of acetylthiocholine iodide as substrate by Lineweaver-Burk plot analysis
# [17] = in vitro; settings: human, HepG2 cells
# Description: Cytotoxicity against human HepG2 cells assessed as cell viability at 1.25 uM after 24 hrs by MTT assay relative to control
# [18] = in vitro; settings: human, HepG2 cells; remark: listed apart in the source
# Description: Cytotoxicity against human HepG2 cells assessed as cell viability at 2.5 uM after 24 hrs by MTT assay relative to control
# [19] = in vitro; settings: human, HepG2 cells; remark: listed apart in the source
# Description: Cytotoxicity against human HepG2 cells assessed as cell viability at 5 uM after 24 hrs by MTT assay relative to control
# [20] = in vitro; settings: human, HepG2 cells; remark: listed apart in the source
# Description: Cytotoxicity against human HepG2 cells assessed as cell viability at 10 uM after 24 hrs by MTT assay relative to control
# Sequence of Amyloid-beta precursor protein (Homo sapiens) (P05067 whole entry): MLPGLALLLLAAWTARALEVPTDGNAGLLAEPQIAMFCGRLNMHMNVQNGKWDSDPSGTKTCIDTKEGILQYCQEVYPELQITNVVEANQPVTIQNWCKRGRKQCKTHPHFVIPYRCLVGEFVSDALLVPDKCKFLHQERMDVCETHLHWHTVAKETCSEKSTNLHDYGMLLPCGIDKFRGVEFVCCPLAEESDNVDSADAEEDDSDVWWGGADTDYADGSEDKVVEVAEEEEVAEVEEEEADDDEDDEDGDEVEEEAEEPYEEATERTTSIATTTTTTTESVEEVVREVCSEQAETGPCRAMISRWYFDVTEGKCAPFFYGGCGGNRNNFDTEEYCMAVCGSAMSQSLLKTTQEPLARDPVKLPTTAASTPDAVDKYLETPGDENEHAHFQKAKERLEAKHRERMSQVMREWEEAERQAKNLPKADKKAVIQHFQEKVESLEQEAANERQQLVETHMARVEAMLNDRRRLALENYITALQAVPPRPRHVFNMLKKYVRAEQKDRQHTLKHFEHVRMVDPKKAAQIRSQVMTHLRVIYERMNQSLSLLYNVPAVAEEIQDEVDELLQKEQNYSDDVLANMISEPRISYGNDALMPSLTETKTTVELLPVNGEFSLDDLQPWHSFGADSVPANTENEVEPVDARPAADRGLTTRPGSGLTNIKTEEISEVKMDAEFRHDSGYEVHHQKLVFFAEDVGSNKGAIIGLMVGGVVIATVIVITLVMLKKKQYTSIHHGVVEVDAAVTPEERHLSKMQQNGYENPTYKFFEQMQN
# Sequence of Cholinesterase (Equus caballus, UniProt P81908) (P81908 whole entry): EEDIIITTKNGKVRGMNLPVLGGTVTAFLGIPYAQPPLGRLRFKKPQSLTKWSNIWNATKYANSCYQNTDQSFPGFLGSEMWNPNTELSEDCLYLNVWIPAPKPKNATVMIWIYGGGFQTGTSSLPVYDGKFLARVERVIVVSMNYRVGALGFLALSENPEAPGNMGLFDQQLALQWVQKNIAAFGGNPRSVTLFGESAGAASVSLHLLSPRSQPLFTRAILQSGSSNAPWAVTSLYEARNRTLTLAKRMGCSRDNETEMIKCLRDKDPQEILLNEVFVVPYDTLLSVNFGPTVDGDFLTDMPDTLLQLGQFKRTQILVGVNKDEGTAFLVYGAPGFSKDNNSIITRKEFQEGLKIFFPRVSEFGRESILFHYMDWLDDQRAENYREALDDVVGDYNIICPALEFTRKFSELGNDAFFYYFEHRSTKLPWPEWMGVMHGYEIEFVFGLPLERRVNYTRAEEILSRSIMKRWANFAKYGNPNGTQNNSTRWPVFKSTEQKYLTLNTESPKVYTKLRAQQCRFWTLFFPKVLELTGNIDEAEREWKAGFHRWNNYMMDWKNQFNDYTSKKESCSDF
# T1 sequence (P22303 whole entry): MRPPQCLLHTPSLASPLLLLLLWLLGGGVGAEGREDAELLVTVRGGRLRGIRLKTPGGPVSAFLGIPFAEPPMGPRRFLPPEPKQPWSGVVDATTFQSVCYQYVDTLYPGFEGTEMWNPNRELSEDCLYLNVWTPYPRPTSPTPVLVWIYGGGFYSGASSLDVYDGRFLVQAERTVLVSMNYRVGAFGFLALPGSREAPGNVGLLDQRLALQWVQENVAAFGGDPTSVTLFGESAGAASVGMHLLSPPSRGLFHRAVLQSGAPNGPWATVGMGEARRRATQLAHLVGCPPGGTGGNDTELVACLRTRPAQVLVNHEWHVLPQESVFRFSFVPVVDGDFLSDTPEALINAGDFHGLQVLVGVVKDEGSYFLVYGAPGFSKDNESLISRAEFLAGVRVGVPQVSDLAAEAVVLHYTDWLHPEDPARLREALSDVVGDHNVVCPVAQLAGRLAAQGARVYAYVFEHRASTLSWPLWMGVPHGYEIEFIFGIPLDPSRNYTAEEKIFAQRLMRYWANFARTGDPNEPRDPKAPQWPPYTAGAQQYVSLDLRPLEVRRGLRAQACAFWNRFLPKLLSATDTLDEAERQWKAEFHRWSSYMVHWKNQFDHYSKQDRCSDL
# Sequence of Acetylcholinesterase (Electrophorus electricus, UniProt O42275) (O42275 whole entry): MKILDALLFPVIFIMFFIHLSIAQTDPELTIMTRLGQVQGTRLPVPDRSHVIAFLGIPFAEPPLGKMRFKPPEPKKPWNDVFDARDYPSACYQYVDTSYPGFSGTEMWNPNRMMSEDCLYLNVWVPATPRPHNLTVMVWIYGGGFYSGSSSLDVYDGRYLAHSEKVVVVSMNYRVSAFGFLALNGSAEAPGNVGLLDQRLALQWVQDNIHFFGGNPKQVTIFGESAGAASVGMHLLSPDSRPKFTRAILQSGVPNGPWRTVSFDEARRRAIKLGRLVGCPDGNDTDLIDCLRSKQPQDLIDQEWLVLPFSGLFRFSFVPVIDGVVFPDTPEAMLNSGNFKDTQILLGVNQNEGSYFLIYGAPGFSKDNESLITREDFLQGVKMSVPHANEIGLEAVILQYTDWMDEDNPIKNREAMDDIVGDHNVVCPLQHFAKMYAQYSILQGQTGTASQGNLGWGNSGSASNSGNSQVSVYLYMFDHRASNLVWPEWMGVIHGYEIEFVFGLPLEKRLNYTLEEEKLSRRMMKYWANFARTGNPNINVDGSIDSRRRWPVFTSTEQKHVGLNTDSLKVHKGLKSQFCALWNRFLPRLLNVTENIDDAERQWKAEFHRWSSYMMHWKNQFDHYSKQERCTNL
# Sequence of Cholinesterase (Homo sapiens, UniProt P06276) (P06276 whole entry): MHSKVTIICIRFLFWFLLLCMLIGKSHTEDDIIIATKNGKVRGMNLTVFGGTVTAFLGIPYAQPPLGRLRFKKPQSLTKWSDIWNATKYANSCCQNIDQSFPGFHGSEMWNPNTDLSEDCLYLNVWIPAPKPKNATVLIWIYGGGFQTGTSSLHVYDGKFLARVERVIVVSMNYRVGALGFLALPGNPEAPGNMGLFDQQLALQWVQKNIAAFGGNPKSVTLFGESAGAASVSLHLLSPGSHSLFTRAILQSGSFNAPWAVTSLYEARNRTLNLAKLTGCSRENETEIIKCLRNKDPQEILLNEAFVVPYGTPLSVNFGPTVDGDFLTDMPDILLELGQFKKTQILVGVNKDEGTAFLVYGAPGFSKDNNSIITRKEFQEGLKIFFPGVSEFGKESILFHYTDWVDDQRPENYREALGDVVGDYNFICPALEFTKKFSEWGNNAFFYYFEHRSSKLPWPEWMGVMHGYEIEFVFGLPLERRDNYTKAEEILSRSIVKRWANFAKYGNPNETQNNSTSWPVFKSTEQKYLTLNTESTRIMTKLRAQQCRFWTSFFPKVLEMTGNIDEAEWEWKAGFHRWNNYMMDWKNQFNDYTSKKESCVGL
# Sequence of Acetylcholinesterase (Electrophorus electricus) (O42275 24-633 limits assumed): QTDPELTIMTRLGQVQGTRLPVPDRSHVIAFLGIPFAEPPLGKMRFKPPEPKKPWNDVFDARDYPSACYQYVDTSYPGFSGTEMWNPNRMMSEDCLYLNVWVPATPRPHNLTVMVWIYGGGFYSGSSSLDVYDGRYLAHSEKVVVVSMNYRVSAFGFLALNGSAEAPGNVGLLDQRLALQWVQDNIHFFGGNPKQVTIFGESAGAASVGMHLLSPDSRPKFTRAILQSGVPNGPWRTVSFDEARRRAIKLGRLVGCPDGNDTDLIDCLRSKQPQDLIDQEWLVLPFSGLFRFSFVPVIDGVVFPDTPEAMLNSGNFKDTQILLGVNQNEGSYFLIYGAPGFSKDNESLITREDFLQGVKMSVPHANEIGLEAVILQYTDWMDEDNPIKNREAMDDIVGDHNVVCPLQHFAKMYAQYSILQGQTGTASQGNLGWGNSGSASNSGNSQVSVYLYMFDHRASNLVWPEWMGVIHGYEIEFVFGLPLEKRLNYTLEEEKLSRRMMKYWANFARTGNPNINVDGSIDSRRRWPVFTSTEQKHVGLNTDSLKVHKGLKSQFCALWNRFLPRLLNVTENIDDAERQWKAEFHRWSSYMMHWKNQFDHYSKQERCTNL
SMILES,IC50 [1],IC50 [2],also measured
Cc1nc(C)c(COc2ccc(/C=C/C(=O)NCCCCCCNc3c4c(nc5ccccc35)CCCC4)cc2OCc2nc(C)c(C)nc2C)nc1C,0.136 µM,0.0681 µM,–
COc1cc(/C=C/C(=O)NCCCCCCNc2c3c(nc4ccccc24)CCCC3)cc(OC)c1OCc1nc(C)c(C)nc1C,0.0026 µM,0.0286 µM,IC50 [3]: 0.108 µM; IC50 [4]: 0.577 µM; inhibition [5]: inactive; viability at 10 µM [6]: 11.2%; viability at 2.5 µM [7]: 37.7%; viability at 5 µM [8]: 15%
COc1cc(/C=C/C(=O)NCCCCCCNc2c3c(nc4ccccc24)CCCC3)ccc1OCc1nc(C)c(C)nc1C,0.0147 µM,0.0283 µM,–
O=C(/C=C/c1ccc(O)cc1)NCCCCCCNc1c2c(nc3ccccc13)CCCC2,0.0446 µM,0.0241 µM,–
Cc1nc(C)c(COc2ccc(CC(O)C(=O)NCCCCNc3c4c(nc5ccccc35)CCCC4)cc2OCc2nc(C)c(C)nc2C)nc1C (centres undefined),> 1 µM,> 1 µM,–
Cc1nc(C)c(COc2ccc(/C=C/C(=O)NCCCCCCCCNc3c4c(nc5ccccc35)CCCC4)cc2)nc1C,0.264 µM,0.228 µM,–
COc1cc(/C=C/C(=O)NCCCCCCNc2c3c(nc4ccccc24)CCCC3)cc(OC)c1O,0.0039 µM,0.0243 µM,"IC50 [3]: 0.0652 µM; IC50 [4]: 0.0488 µM; Ratio IC50 [9]: 2; inhibition [10]: 47%; inhibition [11]: 48%; inhibition [12]: Dose-dependent effect; viability at 48 h, 10 µM [13]: 131%; viability at 10 µM [6]: 107%; viability at 2.5 µM [7]: 92.4%; viability at 5 µM [8]: 99.5%; Activity [14]: Dose-dependent effect; inhibition [15]: Active; inhibition [16]: Active; viability at 24 h, 1.25 µM [17]: 98.4%; viability at 24 h, 2.5 µM [18]: 96.3%; viability at 24 h, 5 µM [19]: 94.9%; viability at 24 h, 10 µM [20]: 81.8%"
Cc1nc(C)c(COc2ccc(/C=C/C(=O)NCCNc3c4c(nc5ccccc35)CCCC4)cc2OCc2nc(C)c(C)nc2C)nc1C,0.108 µM,> 1 µM,–
COc1cc(/C=C/C(=O)NCCCCCCCCNc2c3c(nc4ccccc24)CCCC3)cc(OC)c1OCc1nc(C)c(C)nc1C,0.145 µM,0.0166 µM,–
COc1cc(/C=C/C(=O)NCCCCNc2c3c(nc4ccccc24)CCCC3)cc(OC)c1OCc1nc(C)c(C)nc1C,0.179 µM,> 1 µM,–
COc1cc(/C=C/C(=O)NCCCCCCCCNc2c3c(nc4ccccc24)CCCC3)cc(OC)c1O,0.0325 µM,0.0093 µM,–
Cc1nc(C)c(COc2ccc(CC(O)C(=O)NCCNc3c4c(nc5ccccc35)CCCC4)cc2OCc2nc(C)c(C)nc2C)nc1C (centres undefined),> 1 µM,0.816 µM,–
Cc1nc(C)c(COc2ccc(CC(O)C(=O)NCCCCCCCCNc3c4c(nc5ccccc35)CCCC4)cc2OCc2nc(C)c(C)nc2C)nc1C (centres undefined),0.0651 µM,0.0038 µM,–
COc1cc(/C=C/C(=O)NCCCCNc2c3c(nc4ccccc24)CCCC3)cc(OC)c1O,0.0644 µM,0.241 µM,–
Cc1nc(C)c(COc2ccc(/C=C/C(=O)NCCCCCCCCNc3c4c(nc5ccccc35)CCCC4)cc2OCc2nc(C)c(C)nc2C)nc1C,> 1 µM,0.0618 µM,–
Cc1nc(C)c(COc2ccc(/C=C/C(=O)NCCCCNc3c4c(nc5ccccc35)CCCC4)cc2)nc1C,0.334 µM,0.0023 µM,–
Cc1nc(C)c(COc2ccc(CC(O)C(=O)NCCCCCCNc3c4c(nc5ccccc35)CCCC4)cc2OCc2nc(C)c(C)nc2C)nc1C (centres undefined),0.27 µM,0.0013 µM,–
COc1cc(/C=C/C(=O)NCCNc2c3c(nc4ccccc24)CCCC3)cc(OC)c1OCc1nc(C)c(C)nc1C,0.0653 µM,0.613 µM,–

SMILES,IC50 [1],IC50 [2],also measured
Cc1nc(C)c(COc2ccc(CC(O)C(=O)NCCCNc3c4c(nc5ccccc35)CCCC4)cc2OCc2nc(C)c(C)nc2C)nc1C (centres undefined),> 1 µM,0.165 µM,–
Cc1nc(C)c(COc2ccc(/C=C/C(=O)NCCCCCCNc3c4c(nc5ccccc35)CCCC4)cc2)nc1C,0.304 µM,0.147 µM,–
Cc1nc(C)c(COc2ccc(/C=C/C(=O)NCCCCNc3c4c(nc5ccccc35)CCCC4)cc2OCc2nc(C)c(C)nc2C)nc1C,0.139 µM,0.111 µM,–
COc1cc(/C=C/C(=O)NCCCCCCCCNc2c3c(nc4ccccc24)CCCC3)ccc1OCc1nc(C)c(C)nc1C,0.304 µM,0.174 µM,–
Cc1nc(C)c(COc2ccc(/C=C/C(=O)NCCNc3c4c(nc5ccccc35)CCCC4)cc2)nc1C,0.0449 µM,0.589 µM,–
Cc1nc(C)c(COc2ccc(/C=C/C(=O)NCCCNc3c4c(nc5ccccc35)CCCC4)cc2)nc1C,0.205 µM,0.0052 µM,–
COc1cc(/C=C/C(=O)NCCCNc2c3c(nc4ccccc24)CCCC3)cc(OC)c1O,0.0258 µM,0.33 µM,–
Cc1c(C)c2c(c(C)c1O)CCC(C)(C(=O)O)O2 (centres undefined) [TROLOX],–,–,viability at 10 µM [6]: 101%
COc1cc(/C=C/C(=O)NCCNc2c3c(nc4ccccc24)CCCC3)cc(OC)c1O,0.101 µM,> 1 µM,–
Cc1nc(C)c(COc2ccc(/C=C/C(=O)NCCCNc3c4c(nc5ccccc35)CCCC4)cc2OCc2nc(C)c(C)nc2C)nc1C,0.0137 µM,0.199 µM,–
COc1cc(/C=C/C(=O)NCCCCNc2c3c(nc4ccccc24)CCCC3)ccc1OCc1nc(C)c(C)nc1C,0.188 µM,0.0324 µM,–
O=C(/C=C/c1ccc(O)cc1)NCCCCNc1c2c(nc3ccccc13)CCCC2,0.139 µM,0.0298 µM,–
COc1cc(/C=C/C(=O)NCCNc2c3c(nc4ccccc24)CCCC3)ccc1OCc1nc(C)c(C)nc1C,0.0331 µM,0.502 µM,–
COc1cc(/C=C/C(=O)NCCCNc2c3c(nc4ccccc24)CCCC3)ccc1OCc1nc(C)c(C)nc1C,0.0122 µM,0.0226 µM,–
O=C(/C=C/c1ccc(O)cc1)NCCCNc1c2c(nc3ccccc13)CCCC2,0.128 µM,0.0433 µM,–
COc1cc(/C=C/C(=O)NCCCNc2c3c(nc4ccccc24)CCCC3)cc(OC)c1OCc1nc(C)c(C)nc1C,0.116 µM,> 1 µM,–
O=C(/C=C/c1ccc(O)cc1)NCCCCCCCCNc1c2c(nc3ccccc13)CCCC2,0.522 µM,0.278 µM,–
O=C(/C=C/c1ccc(O)cc1)NCCNc1c2c(nc3ccccc13)CCCC2,0.11 µM,0.302 µM,–
